Among the data in a melting point compilation (Tetko et al.; mined from patent text by program, amines drawn as free bases though some values may be those of a salt) are melting point values, retold here.

Structures are written as SMILES.

Broadly, the melting point is the temperature of the solid-liquid transition. `COc1ccc(CN2C=CC=C3C2=Nc2cc(C)ccc2S(=O)(=O)N3C)cc1` returned a melting point of 135 to 136 °C.

In turn, `CCCn1nc2c(N)nc3ccccc3c2c1CCCCCl` came in with a melting point of 172 to 173 °C.

In turn, `N#CC1=C(Nc2ccc(F)c(F)c2)CCC1` registered a melting point of 126 to 128 °C.

In turn, `CN(C)c1cccc2c1C(=O)NS2(=O)=O` gave a melting point of 228 to 229 °C.

Consider `Cc1cc(OC(F)F)nc(NC(=O)Oc2ccccc2)n1`, for which the melting point lay in the range of 56 to 58 °C.

In turn, `COC(=O)c1c(C)cc(-c2ccccc2)nc1-c1cccc([N+](=O)[O-])c1` showed a melting point of 105 to 106 °C.

`CC(C)(C)OC(=O)N[C@@H](CC(=O)OCc1ccccc1)C(=O)N[C@@H](Cc1ccccc1)C(=O)OCc1ccccc1` had a melting point of 93 to 94 °C.

On to `COC(c1c(Cl)sc(Cl)c1Cl)C(C)N(OC)C(=O)c1cn(C)nc1C(F)F` (stereo not drawn), for which the melting point was 113 to 116 °C.

Take `CC(C)(C)N1CC(=O)Nc2ccc(Br)cc2C1=O`: the melting point was 205 to 208 °C.

Turning to `COc1ccc([N+](=O)[O-])c(/C=C/c2cc(/C=C/c3ccc4cc[nH]c4c3)n[nH]2)c1`, the melting point fell in the range of 104 to 109 °C.

The molecule `CCN(CC)c1ccc(/C=C/c2cc(/C=C/c3ccc4cc[nH]c4c3)[nH]n2)c(OCCN2CCOCC2)c1` registered a melting point of 96 to 99 °C.

Turning to `O=C(O)Cc1ccc(O)c(OCc2ccccc2)c1`, the melting point lay in the range of 130 to 133 °C.

`O=C(O)c1ccc(F)cc1Sc1ccc(F)cc1` registered a melting point of 209 to 218 °C.

On to `COc1ccc(-c2coc3c(C)c(O)ccc3c2=O)cc1OC`, for which the melting point was 234 °C.

Molecule `C=CCN1C2CCC3C1CCC2N3C(c1ccc(C(=O)N2CCCC2)cc1)c1cccc(OC)c1` (stereo not drawn) showed a melting point of 126 to 128 °C.

Regarding `O=C(NC1CCN(CCCc2ccc(Cl)cc2)C1)C12CC3CC(CC(C3)C1)C2` (stereo not drawn), the melting point lay in the range of 117 to 119 °C.

For `COc1ccc(-n2nc(C(C)(C)C)cc2NC(=O)c2cccc3cc(Oc4cc(NCCN(C)C)ncn4)ccc23)cc1`, the melting point lay within 116 to 117 °C.

The molecule `Cn1nnnc1SCC1(C)SC2C(NC(=O)Cn3cnnn3)C(=O)N2C1C(=O)O` (stereo not drawn) yielded a melting point of 152 to 154 °C.

With `COC(=O)[C@H](Cc1ccccc1)Oc1c(C)cc(-c2c3ccccc3c(Br)c3sc(C)c(C)c23)cc1C`, the melting point was in the range of 134 to 139 °C.

`CN(C)C1(c2ccccc2Cl)C(=O)Nc2ccc(Cl)cc21` (stereo not drawn): the melting point fell in the range of 169 to 172 °C.

`O=C(O)CCc1oc(-n2cnc3ccccc32)nc1-c1ccc(Cl)cc1` displayed a melting point of 217 to 218 °C.

`COc1ccc(CCc2nc(C(N)=O)c[nH]2)cc1`: the melting point was in the range of 218 to 219 °C.

`N#CC1=C(Nc2ccc(Cl)cc2[N+](=O)[O-])CSC1` displayed a melting point of 154 to 155 °C.

As for `COC(=O)c1cccc2c1Nc1cccc(I)c1C2`, the melting point lay within 108 to 110 °C.

Regarding `Cc1c(N2CCC(N)C2)c(F)cc2c(=O)c(C(=O)O)cn(C3COC3)c12` (stereo not drawn), the melting point was over 230 °C.

With `O=C(C=Cc1cncc(O)c1)NCCCN1CCN(C(c2ccccc2)c2ccccc2)CC1`, the melting point fell in the range of 189 to 191 °C.

Turning to `CCCc1nc2c(N)nc3ccccc3c2n1CCCCN(O)C(C)=O`, the melting point fell in the range of 191 to 193 °C.

`O=C(O)/C=C/c1ccc(-c2nc3c(=O)n(CC4CC4)c(=O)n(CC4CC4)c3[nH]2)cc1` registered a melting point of over 250 °C.

Take `Cc1nc(-c2ccccc2)nc(Cl)c1C`: the melting point was in the range of 120 to 122 °C.

The molecule `CCN1C(=O)C(NC(=O)C(F)(F)F)CCc2c1ccc(Nc1ncc(Cl)c(Nc3ccccc3S(=O)(=O)N(C)C)n1)c2OC` (stereo not drawn) displayed a melting point of 250 to 251 °C.

With `CSc1ccc(NC(=O)NCc2cc(C(C)(C)C)c(O)c(C(C)(C)C)c2)cc1`, the melting point was in the range of 141 to 145 °C.

`O=C(NCc1cccc(-c2ccc(CS(=O)(=O)Cc3n[nH]c(=O)[nH]3)cc2)c1)c1nc2ccccc2c(=O)[nH]1` showed a melting point of 245 to 247 °C.

Take `CCCCCCCCCCCCC#CC#CCCCCCCCC(C(N)=O)C(C)c1ccccc1` (stereo not drawn): the melting point fell in the range of 65.5 to 66.5 °C.

Turning to `CN(C)CCNC(=O)c1cccc(N)c1`, the melting point was in the range of 97 to 100 °C.

In turn, `CN(C)C(=O)c1cc(-c2ccccc2)c(=O)n2c1-c1cc(Cl)ccc1CN2` gave a melting point of 250 to 252 °C.

`CNC(=NS(C)(=O)=O)NCCCSc1ncc(Br)c(NC(N)=NCC(F)(F)F)n1` yielded a melting point of 166 to 167 °C.

With `CC(Cl)=Cc1ccc([N+](=O)[O-])o1`, the melting point lay within 55 to 65 °C.

For `CCn1c(-c2c(C)cc(C)cc2C)nc(-c2ccncc2)c1-c1ccc(C)cc1`, the melting point lay in the range of 137 to 140 °C.

The molecule `CC(=O)c1cc(C(=O)O)c(=O)[nH]c1C` yielded a melting point of 238 to 241 °C.

Take `CC(C)(S)CN1CCC(CCO)CC1`: the melting point is 42 °C.

As to `CC(C)(C)C(=O)C(=Cc1ccc(Cl)cc1)n1cncn1`, the melting point is 82 °C.

For the molecule `N#Cc1ccc(CCC(O)C2CC2)cc1` (stereo not drawn), the melting point fell in the range of 70 to 71 °C.

`COc1ccc(-c2ocnc2-c2cc(OC)c(Cl)c(OC)c2)cc1N`: the melting point lay in the range of 146 to 148 °C.

For the molecule `Cc1cccc(C)c1NC(=O)Nc1sc2ccc(Cl)cc2c1-c1ccccc1Cl`, the melting point was in the range of 203 to 204 °C.

`CCCCCCCc1ccc(NC(=O)Nc2ccccc2C(=O)NC2CCN(C(c3ccccc3)c3ccccc3)CC2)cc1` yielded a melting point of 173 to 175 °C.

`CCOC(=O)C(=NOC)c1csc(NC(=O)OCC(Cl)(Cl)Cl)n1`: the melting point is 125 to 128 °C.

Turning to `CC[C@H](C)COc1ccc(O)cc1`, the melting point lay within 44 to 45 °C.

`CC(C)Nc1ncnc2sc([N+](=O)[O-])cc12`: the melting point stood at 200 °C.

With `COc1ccc(-c2c(/C=C\C(=O)O)cnn2C)cc1`, the melting point fell in the range of 205 to 206 °C.

Molecule `NC(=O)N1CCC(Br)C1=O` (stereo not drawn) showed a melting point of 128 to 129 °C.

For the molecule `CC(c1ccncc1)C(O)(Cn1cncn1)c1ccc(F)cc1F` (stereo not drawn), the melting point is 161 to 163 °C.

Regarding `CC(C)(C)C(=O)OC(COc1cccc2[nH]nnc12)CN1CCC(COc2ccccc2)CC1` (stereo not drawn), the melting point fell in the range of 131 to 133 °C.

`O=C(OCC1OC(Oc2ccc([N+](=O)[O-])cc2)C(OC(=O)c2ccccc2)C(OC(=O)c2ccccc2)C1O)c1ccccc1` (stereo not drawn) had a melting point of 180 to 181 °C.

With `Cc1ccccc1CCNC(=O)c1ccc(F)cc1`, the melting point lay in the range of 82 to 83 °C.

`C=CCNC(=O)[C@H]1CN(c2ccc(N3CCOCC3)c(F)c2)C(=O)O1` had a melting point of 167 to 169 °C.

Molecule `CCCCCC(=O)c1cccc(OCc2ccc3ccccc3c2)c1` yielded a melting point of 52 to 55 °C.

Molecule `CCN(C(C)=O)c1ccc(O)cc1` yielded a melting point of 183 to 185 °C.

Consider `Cc1nc2cc(Cl)ccc2c(=O)n1CCc1ccccc1`, for which the melting point fell in the range of 133 to 135 °C.

For the molecule `O=c1[nH]c2cc(Cl)cc(Cl)c2cc1Br`, the melting point is over 300 °C.

`O=C(O)CCCc1ccc(NS(=O)(=O)c2cccc(Cl)c2)cn1`: the melting point was in the range of 141 to 142 °C.

Consider `CCCn1cc2c(C3C(=O)Nc4ccc(Br)cc43)nc(NCCCN)nc2n1` (stereo not drawn), for which the melting point is over 300 °C.

Regarding `O=C(c1c[nH]c2cc(F)ccc12)C(F)(F)F`, the melting point fell in the range of 234 to 235 °C.

`COC(=O)c1ccc(NC(=O)c2cc(C(C)C)c(C(C)C)o2)s1` registered a melting point of 175 to 177 °C.

As for `CC(=O)Nc1ccc2c(c1)C(=O)NC2=O`, the melting point is over 250 °C.

The molecule `O=C1c2c(Cl)cccc2-n2cnc(-c3noc(CN4CCCC4)n3)c2[C@@H]2CCN12` showed a melting point of 117 to 120 °C.

`CCCCCC(=O)CCC1C(=O)NC(=O)N1CCCCCCC(=O)O` (stereo not drawn) registered a melting point of 84.5 to 86 °C.

Consider `CCCCCCCCCCC1=C(O)C(=O)NC1=O`, for which the melting point lay in the range of 109 to 111 °C.

The molecule `CCOC(=O)CC(=O)c1ccc(C)nn1` showed a melting point of 79 °C.

Molecule `Cc1cccc(OC(C)(C)C(=O)NCCc2ccc(OC(C)(C)C(=O)O)cc2)c1` yielded a melting point of 85 to 88 °C.

For the molecule `O=C(CS)NCC(=O)NCCS`, the melting point was in the range of 128 to 130 °C.

On to `CC(c1oc2ccc(F)cc2c(=O)c1-c1cccc(F)c1)n1nc(-c2cccc(O)c2)c2c(N)ncnc21` (stereo not drawn), for which the melting point is 193 to 196 °C.

Regarding `Cc1cc(Sc2ccccc2)ccc1N`, the melting point was 64 to 65 °C.

Consider `O=C(Nc1cccc(C(F)(F)F)c1)N1CCc2cc(Oc3cc(Cl)ncn3)ccc21`, for which the melting point worked out at 181 °C.

`CCCCOc1nc(N)c2[nH]c(=O)n(CCN(C)Cc3cccc(CC(=O)O)c3)c2n1` displayed a melting point of 164 to 166 °C.

In turn, `O=C1[C@H]2CCC[C@H]2Nc2ccccc2N1Cc1cccc2ccccc12` (relative stereo) came in with a melting point of 126 to 128 °C.

For the molecule `COc1cc2c(cc1OCc1ccccc1)CCN(Cc1cccc(O[Si](C(C)C)(C(C)C)C(C)C)c1)C2`, the melting point lay in the range of 78 to 79 °C.

In turn, `O=C1c2cccc3cc4ccccc4c(c23)C(=O)N1CCNCCN1C(=O)c2cccc3cc4ccccc4c(c23)C1=O` had a melting point of 271 °C.

For the molecule `O=c1[nH]c2ccsc2[nH]c1=O`, the melting point was over 340 °C.

On to `Brc1cc(Cc2ccc3ccccc3c2)cc(Br)c1OCc1nnn[nH]1`, for which the melting point was in the range of 183 to 184 °C.

`Cc1nn(C)c(C)c1N1CCN(c2c(C)c(C)c3c(c2C)CC(C)(C)O3)CC1` returned a melting point of 162 to 164 °C.

For `ICc1nc(-c2ccc3c(c2)OCO3)c2cc3c(cc2n1)OCO3`, the melting point was 155 to 160 °C.

Molecule `COC(=O)C(Oc1cc(OCc2ccsc2)cc(F)c1C#N)c1ccccc1Cl` (racemic) gave a melting point of 143 to 144 °C.

`Cc1cc(C)c2cccc(OCc3c(Cl)ccc(S(=O)(=O)N4CCC[C@H]4C(=O)NCCCNC(=O)c4cccc(C(N)=NO)c4)c3Cl)c2n1` registered a melting point of 108 to 110 °C.

The molecule `CN1CC(c2ccc(OC(F)(F)F)cc2)(c2ccc(F)c(-c3cccnc3F)c2)N=C1N` (stereo not drawn) yielded a melting point of 65 to 70 °C.

Consider `CN(C)C=C(SCCN1C(=O)c2ccccc2C1=O)C(=O)c1ccc(F)cc1`, for which the melting point fell in the range of 108 to 111 °C.

In turn, `OCc1ccc(-c2ccc3[nH]cc(C[C@H]4CCCN4)c3c2)cc1` came in with a melting point of 65 to 69 °C.

Take `CC(C)[C@H](NC(=O)OCc1ccccc1)C(=O)NC(Cc1ccccc1)C(O)C(Cc1ccccc1)NC(=O)[C@@H](NC(=O)OC(C)(C)C)C(C)C` (stereo partly drawn): the melting point worked out at 184 °C.

In the case of `CC(C)(C)OC(=O)CC(=O)c1ccco1`, the melting point lay in the range of 74 to 75 °C.
